Test results from patent publication US11028078B2 (The Johns Hopkins University, priority 2011, dated 2021).

Columns and labels:
HUVEC = HUVEC proliferation assay ([3H]thymidine incorporation); format: cell-based, human; conditions: for IC50: Homo sapiens, Table 5, read-out: Activity in HUVEC Proliferation IC50; for IC50 / Proliferation (EC50/IC50 Itra) / Proliferation (IC50/IC50 Itra): HUVEC; for Proliferation (EC50/IC50 Itra): footnote g: EC50 of analog relative to IC50 of itraconazole; for Proliferation (IC50/IC50 Itra): IC50 of analog relative to IC50 of itraconazole; for inhibition of HUVEC proliferation: data not shown
Description: The activity of the analogs against HUVEC proliferation, an in vitro proxy for angiogenesis inhibition (Table 3) was analyzed. […]
Pooled HUVEC (Lonza) were grown in EGM-2 bullet kit media (Lonza) and used at passage eight or lower. The proliferation assays were conducted as previously described (Nacev, B.; Low, W. K.; Huang, Z.; Su, T.; Su, Z.; Alkuraya, H.; Kasuga, D.; Sun, W.; Trager, M.; Braun, M.; Fischer, G.; Zhang, K.; Liu, J. O., Acalcineurin-independent mechanism of angiogenesis inhibition by anon-immunosuppressive Cyclosporin Aanalog. J. Pharmacol. Exp. Ther. 2011, DOI:10.1124/jpet.111.18085).

[1] = test system: MB cultures derived from Ptch−/+; p53−/− mice; experiment: Medulloblastoma (MB) proliferation assay; format: cell-based, mouse; conditions: for MB Proliferation (IC50/IC50 Itra): mouse medulloblastoma cultures, 96 h, relative to itraconazole; for inhibition of MB proliferation: FIG. 9A
Description: These cultures were derived from Ptch^−/+; p53^−/− mice that spontaneously develop medulloblastoma associated with ligand independent Hh pathway activation.
MB cultures were derived from mouse Ptch^−/+; p53^−/− MB grown as hind-flank allografts in nude mice (Harlan). Briefly, tumors were mechanically disrupted and made into single cell suspensions by two passages through a 70 μm nylon filter. Cells were pelleted by centrifugation and resuspended in PBS pH 7.4 twice. The cell suspension was then subjected to centrifugation at 1000×g for 25 min over a ficoll gradient. The viable cell layer formed at the ficoll boundary was then collected, suspended in PBS, and pelleted by centrifugation. The resulting pellet was then suspended and cultured as “neurospheres” in Neurobasal Media-A supplemented with retinoic acid deficient B-27 extract (NBMedia). Cells were cultured for three passages, with neurospheres disaggregated using Accumax (Innovative Cell Technologies) between passages.
Cultured MB neurospheres were disaggregated as described and 1×10^4 cells were seeded into wells of a 96-well assay plate in NBMedia and exposed to multiple analogue concentrations: Relative cell numbers following a 96-h incubation were quantified by CellTiter 96® AQueous One Solution Cell Proliferation Assay (Promega) per manufacturer's recommendations using a SpectraMax M2e spectrophotometer and SoftMax Pro software (Molecular Devices). Data was analyzed using Prism5 (GraphPad Software) and IC50 and IC90 values were determined from dose-response curves fitted to mean corrected absorbance normalized to control treatment.

VEGFR2 = VEGFR2 glycosylation in HUVEC (Western blot scoring); format: cell-based, human; conditions: for Glycosylation (2 μM dose): VEGFR2 hypoglycosylation score in HUVEC, 24 h; for VEGFR2 glycosylation defect: data not shown
Description: VEGFR2 hypoglycosylation was scored either robust (++), intermediate (+), or absent (−) (FIG. 6).
HUVEC were seeded at 5×10^4 per well of a 6-well plate in 3 mL of media. After an overnight recovery, the media was replaced with 2 mL fresh media and the analogs were added from 200× stocks in DMSO. Following a 24-h incubation, the media was aspirated and 2×SDS sample buffer was added to the cells which were incubated on ice for 10 min and then boiled for 10 min. […] Following three washes in TBS-T, the membrane was incubated with anti-rabbit horseradish peroxidase conjugated IgG (GE Healthcare) (1:5000-1:10000 dilution) in 1% BSA in TBS-T. The membranes were washed three times in TBS-T, incubated for 1-5 minutes with ECL substrate (Immobilon Wester, Milipore) and visualized (Kodak Image Staion 440 CF).

Gli1 transcript = experiment: Quantification of Gli1 transcript by TaqMan analysis in MB cells (Hh pathway); format: cell-based, mouse; conditions: for Gli I Inhibition (IC90 Prolif. dose): Gli1 transcript fold induction score, MB cells exposed 24 h at the IC90 for MB proliferation; for inhibition of Gli1 transcript levels: established MB cultures, FIG. 9B
Description: Inhibitors of the Hh pathway are known to inhibit MB cell proliferation. However, MB cell proliferation is also affected by drugs with targets other than Hh signaling.
Following drug exposure, cells were washed in PBS and pelleted by centrifugation at 300×g. Cell pellets were lysed in Trizol reagent (Invitrogen). Total RNA was separated and collected in the aqueous phase following centrifugation of lysate in the presence of chloroform. Total RNA was ethanol precipitated and purified over RNeasy Mini Kit (Qiagen) filter columns per manufacturer's recommendations. Transcript levels were quantified using gene-specific TaqMan primer/probe sets and the StepOne Plus Real-Time PCR system (Applied Biosystems) on cDNA reverse transcribed using the QuantiTect Reverse Transcription Kit (Qiagen) per manufacturers' recommendations. Results were quantified using StepOne Plus software v2.1 (Applied Biosystems) and were expressed as fold induction relative to control samples using the A ΔCt (2^−ΔΔCt) method with actin as an internal control. The primer/probe set (Applied Biosystems) for TaqMan PCR for mouse Gli-1 was Mm00494645_m1, and for mouse actin was Mm00607939_s1.

| Compound | MB Proliferation (IC50/IC50 Itra) [1] | Glycosylation (2 μM dose) (VEGFR2) | Gli I Inhibition (IC90 Prolif. dose) (Gli1 transcript) | Proliferation (IC50/IC50 Itra) (HUVEC) | further results |
| --- | --- | --- | --- | --- | --- |
| CCC(C)n1ncn(-c2ccc(N3CCN(c4ccc(OCC5CO[C@@](Cn6cncn6)(c6ccc(Cl)cc6Cl)O5)nc4)CC3)c(C)c2)c1=O (stereo partly shown) [Compound 47a] |  |  |  |  | IC50 (HUVEC): 155 nM |
| O=c1n(-c2ccc(N3CCN(c4ccc(OCC5COC(Cn6cncn6)(c6ccc(Cl)cc6Cl)O5)cc4)CC3)cc2)cnn1CCCCCCc1ccccc1 [Compound 7n, cis-(2S,4R)-4-[4-[4-[4-[[2-(2,4-Dichlorophenyl)-2-(1H-1,2,4-triazol-1-ylmethyl)-1,3-dioxolan-4-yl]methoxy]phenyl]-lpiperazinyl]phenyl]-2,4-dihydro-2-(6-phenylhexyl)-3H-1,2,4-triazol-3-one] | 0.69 | − | ++ (≤0.15) |  | Proliferation (EC50/IC50 Itra) (HUVEC): 1.45^g |
| O=c1n(-c2ccc(N3CCN(c4ccc(OCC5COC(Cn6cncn6)(c6ccc(Cl)cc6Cl)O5)cc4)CC3)cc2)cnn1C1CCCCC1 [Compound 7k, cis-(2S,4R)-4-[4-[4-[4-[[2-(2,4-Dichlorophenyl)-2-(1H-1,2,4-triazol-1-ylmethyl)-1.3-dioxolan-4-yl]methoxy]phenyl]-lpiperazinyl]phenyl]-2,4-dihydro-2-(1-cyclohexyl)-3H-1,2,4-triazol-3-one] | 0.37 | ++ | − (≥0.45) | 0.44 |  |
| CC1(CCn2ncn(-c3ccc(N4CCN(c5ccc(OCC6COC(Cn7cncn7)(c7ccc(Cl)cc7Cl)O6)cc5)CC4)cc3)c2=O)N=N1 [Compound 7w, cis-(2S,4R)-4-[4-[4-[4-[[2-(2,4-Dichlorophenyl)-2-(1H-1,2,4-triazol-1-ylmethyl)-1,3-dioxolan-4-yl]methoxy]phenyl]-lpiperazinyl]phenyl]-2,4-dihydro-2-(2-(3-methyl-3H-diazirin-3-yl)ethyl)-3H-1,2,4-triazol-3-one] | 1.32 | + | + (0.16 to 0.44) | >13.8 |  |
| CCC(C)n1ncn(-c2ccc(N3CCN(c4ccc(OCC5CO[C@@](Cn6cncn6)(c6ccc(Cl)cc6Cl)O5)cc4)CC3)cc2)c1=O (stereo partly shown) [Compound 46a] |  |  |  |  | IC50 (HUVEC): 155 nM |
| O=C(c1ccccc1)c1ccc(OCCCCCCn2ncn(-c3ccc(N4CCN(c5ccc(OCC6COC(Cn7cncn7)(c7ccc(Cl)cc7Cl)O6)cc5)CC4)cc3)c2=O)cc1 [Compound 7q, cis-(2S,4R)-4-[4-[4-[4-[[2-(2,4-Dichlorophenyl)-2-(1H-1,2,4-triazol-1-ylmethyl)-1,3-dioxolan-4-yl]methoxy]phenyl]-piperazinyl]phenyl]-2,4-dihydro-2-(6-(4-benzoylphenoxy)hexyl)-3H-1,2,4-triazol-3-one] | 0.8 | − | − (≥0.45) |  |  |
| N#CCCCCCn1ncn(-c2ccc(N3CCN(c4ccc(OCC5COC(Cn6cncn6)(c6ccc(Cl)cc6Cl)O5)cc4)CC3)cc2)c1=O [Compound 7u, cis-(2S,4R)-4-[4-[4-[4-[[2-(2,4-Dichlorophenyl)-2-(1H-1,2,4-triazol-1-ylmethyl)-1,3-dioxolan-4-yl]methoxy]phenyl]-]piperazinyl]phenyl]-2,4-dihydro-2-(5-cyanopentyl)-3H-1,2,4-triazol-3-one] | 0.84 | ++ | + (0.16 to 0.44) | 0.18 |  |
| [N-]=[N+]=NCCCCCCn1ncn(-c2ccc(N3CCN(c4ccc(OCC5COC(Cn6cncn6)(c6ccc(Cl)cc6Cl)O5)cc4)CC3)cc2)c1=O [Compound 7p, cis-(2S,4R)-4-[4-[4-[4-[[2-(2,4-Dichlorophenyl)-2-(1H-1,2,4-triazol-1-ylmethyl)-1,3-dioxolan-4-yl]methoxy]phenyl]-lpiperazinyl]phenyl]-2,4-dihydro-2-(6-azidohexyl)-3H-1,2,4-triazol-3-one] | 0.70 | + | + (0.16 to 0.44) | 0.30 |  |
| CCCCCCCCn1ncn(-c2ccc(N3CCN(c4ccc(OCC5COC(Cn6cncn6)(c6ccc(Cl)cc6Cl)O5)cc4)CC3)cc2)c1=O [Compound 7m, cis-(2S,4R)-4-[4-[4-[4-[[2-(2,4-Dichlorophenyl)-2-(1H-1,2,4-triazol-1-ylmethyl)-1,3-dioxolan-4-yl]methoxy]phenyl]-piperazinyl]phenyl]-2,4-dihydro-2-(n-octyl)-3H-1,2,4-triazol-3-one] | 0.67 | − | ++ (≤0.15) |  | Proliferation (EC50/IC50 Itra) (HUVEC): 2.24^g |
| CCCn1ncn(-c2ccc(N3CCN(c4ccc(OC[C@@H]5CO[C@@](Cn6cncn6)(c6ccc(Cl)cc6Cl)O5)cc4)CC3)cc2)c1=O (relative stereo) [Compound 7c, cis-(2S,4R)-4-[4-[4-[4-[[2-(2,4-Dichlorophenyl)-2-(1H-1,2,4-triazol-1-ylmethyl)-1,3-dioxolan-4-yl]methoxy]phenyl]-lpiperazinyl]phenyl]-2,4-dihydro-2-propyl-3H-1,2,4-triazol-3-one] | 1.01 | + | ++ (≤0.15) | 1.06 |  |
| CC[C@@H](C)n1ncn(-c2ccc(N3CCN(c4ccc(OCC5CO[C@@](Cn6cncn6)(c6ccc(Cl)cc6Cl)O5)cc4)CC3)cc2)c1=O (stereo partly shown) [Itraconazole C, reference compound] |  |  |  |  | IC50 (HUVEC): 152 nM |
| CCC(C)n1ncn(-c2ccc(N3CCN(c4ccc(OCC5CO[C@](Cn6cncn6)(c6ccc(Cl)cc6Cl)O5)cc4)CC3)cc2)c1=O (stereo partly shown) [Compound 46b] |  |  |  |  | IC50 (HUVEC): 236 nM |
| CS(=O)(=O)c1ccc(C(=O)Nc2ccc(Cl)c(-c3ccccn3)c2)c(Cl)c1 [GDC-0449, reference compound] |  |  |  |  | inhibition of MB proliferation [1]: Dose-dependent inhibition; inhibition of Gli1 transcript levels (Gli1 transcript): Dose-dependent inhibition |
| HhAntag [reference compound] |  |  |  |  | inhibition of MB proliferation [1]: Dose-dependent inhibition; inhibition of Gli1 transcript levels (Gli1 transcript): Dose-dependent inhibition |
| CC(=O)N1CCN(c2ccc(OCC3COC(Cn4ccnc4)(c4ccc(Cl)cc4Cl)O3)cc2)CC1 (stereo not shown) [ketoconazole, reference compound] |  |  |  |  | VEGFR2 glycosylation defect (VEGFR2): fail to induce the VEGFR2 glycosylation defect; inhibition of HUVEC proliferation (HUVEC): do not inhibit proliferation |
| CC(C)N1CCN(c2ccc(OCC3COC(Cn4cncn4)(c4ccc(Cl)cc4Cl)O3)cc2)CC1 (stereo not shown) [terconazole, reference compound] |  |  |  |  | VEGFR2 glycosylation defect (VEGFR2): fail to induce the VEGFR2 glycosylation defect; inhibition of HUVEC proliferation (HUVEC): do not inhibit proliferation |
